Results taken from ChEMBL document CHEMBL1201862, “PubChem BioAssay data set” (2004).
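Tested at 5 concentrations; 48 h exposure; 96-well plates; endpoints linearly interpolated, else capped at highest concentration. GI50: concentration for 50% inhibition of growth.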 Calls of active or inactive are those of the source. Cut-off read from the data, not from the text of the source: active = GI50 up to about 1.1 µM and inactive = higher.

Legend:
Assay in all cases: NCI tumour cell line growth inhibition, 48 h
RXF 393 = test system: RXF 393
UO-31 = test system: UO-31
IGROV-1 = test system: IGROV-1
Malme-3M = test system: Malme-3M
CAKI-1 = test system: CAKI-1
DU-145 = test system: DU-145
RPMI-8226 = test system: RPMI-8226
SF-268 = test system: SF-268
KM12 = test system: KM12
NCI-H226 = test system: NCI-H226
HCC 2998 = test system: HCC 2998
A498 = test system: A498
SK-MEL-2 = test system: SK-MEL-2
HCT-116 = test system: HCT-116
A549 = test system: A549
OVCAR-5 = test system: OVCAR-5
SN12C = test system: SN12C
PC-3 = test system: PC-3
NCI-H23 = test system: NCI-H23
TK-10 = test system: TK-10

SMILES	GI50 (RXF 393)	GI50 (UO-31)	GI50 (IGROV-1)	GI50 (Malme-3M)	GI50 (CAKI-1)	GI50 (DU-145)	GI50 (RPMI-8226)	GI50 (SF-268)	GI50 (KM12)	GI50 (NCI-H226)	GI50 (HCC 2998)	GI50 (A498)	GI50 (SK-MEL-2)	GI50 (HCT-116)	GI50 (A549)	GI50 (OVCAR-5)	GI50 (SN12C)	GI50 (PC-3)	GI50 (NCI-H23)	GI50 (TK-10)
CCC1=C(c2ccc(OC)cc2)CC[C@]2(CCNC2=O)[C@@H]1C	55.2 µM (inactive)	21.4 µM (inactive)	40.3 µM (inactive)	25.8 µM (inactive)	48.3 µM (inactive)	33.3 µM (inactive)	16.3 µM (inactive)	33.1 µM (inactive)	32 µM (inactive)	37.9 µM (inactive)	28.4 µM (inactive)	31.3 µM (inactive)	21.3 µM (inactive)	23.6 µM (inactive)	37.6 µM (inactive)	31.1 µM (inactive)	37.8 µM (inactive)	26.4 µM (inactive)	37.4 µM (inactive)	35 µM (inactive)
COc1ccc(C2C(C=O)C(N3CCN(C)CC3)=Nc3nc4ccccc4n32)cc1 (stereo not given)	13.6 µM (inactive)	14.4 µM (inactive)	16.3 µM (inactive)	10.8 µM (inactive)	19.1 µM (inactive)	17.8 µM (inactive)	2.35 µM (inactive)	16.6 µM (inactive)	16.3 µM (inactive)	16.7 µM (inactive)	17.7 µM (inactive)	11 µM (inactive)	13.1 µM (inactive)	14.6 µM (inactive)	17.2 µM (inactive)	23.3 µM (inactive)	17.9 µM (inactive)	16.3 µM (inactive)	20.5 µM (inactive)	14.3 µM (inactive)
COc1ccc(OC)c(CCc2cc(OC)ccc2OC)c1	2.58 µM (inactive)	5.55 µM (inactive)	1.69 µM (inactive)	0.369 µM (active)	3.92 µM (inactive)	5.19 µM (inactive)	2.82 µM (inactive)	7.76 µM (inactive)	0.12 µM (active)	5.33 µM (inactive)	3.79 µM (inactive)	4.48 µM (inactive)	1.49 µM (inactive)	0.59 µM (active)	5.28 µM (inactive)	> 8.71 µM (inactive)	6.98 µM (inactive)	2.3 µM (inactive)	3.18 µM (inactive)	3.42 µM (inactive)
C[C@@H]1CCC([C@@H](C)[C@H]2CC[C@H]3[C@@H]4CC[C@H]5C[C@@H](O)CC[C@]5(C)[C@H]4CC[C@]23C)=NC1	12.2 µM (inactive)	10.4 µM (inactive)	4.71 µM (inactive)	18.1 µM (inactive)	12.7 µM (inactive)	> 47 µM (inactive)	2.77 µM (inactive)	12.6 µM (inactive)	5.06 µM (inactive)	> 29.8 µM (inactive)	6.52 µM (inactive)	> 70.1 µM (inactive)	14.1 µM (inactive)	6.43 µM (inactive)	16.9 µM (inactive)	24.4 µM (inactive)	8.59 µM (inactive)	10.1 µM (inactive)	17.7 µM (inactive)	34.7 µM (inactive)
CC(=O)Oc1c(OC(C)C)cc(=O)n2ccsc12	> 100 µM (inactive)	> 100 µM (inactive)	92.7 µM (inactive)	> 100 µM (inactive)	> 100 µM (inactive)	> 100 µM (inactive)	29.4 µM (inactive)	> 100 µM (inactive)	> 100 µM (inactive)	> 100 µM (inactive)	> 100 µM (inactive)	> 100 µM (inactive)	> 100 µM (inactive)	> 100 µM (inactive)	> 100 µM (inactive)	> 100 µM (inactive)	> 100 µM (inactive)	> 100 µM (inactive)	> 100 µM (inactive)	> 100 µM (inactive)
O=C(/C=C(\Nc1ccccc1O)c1ccccc1)C(=O)NC12CC3CC(CC(C3)C1)C2	> 10 µM (inactive)	> 10 µM (inactive)	> 10 µM (inactive)	> 10 µM (inactive)	> 10 µM (inactive)	> 10 µM (inactive)	4.99 µM (inactive)	> 10 µM (inactive)	6.95 µM (inactive)	> 10 µM (inactive)	> 10 µM (inactive)	> 10 µM (inactive)	> 10 µM (inactive)			8.45 µM (inactive)	> 10 µM (inactive)	5.65 µM (inactive)	> 10 µM (inactive)	> 10 µM (inactive)
CC(C)[Si]1(C(C)C)OCC2OC(N3C(=O)NC(=O)C[C@@H]3C(O)c3ccccc3)CC2O[Si](C(C)C)(C(C)C)O1 (stereo not given in full)	5.27 µM (inactive)	10.8 µM (inactive)	4.74 µM (inactive)	5.41 µM (inactive)	15.4 µM (inactive)	13.2 µM (inactive)	4.31 µM (inactive)	4.14 µM (inactive)	2.4 µM (inactive)	2.15 µM (inactive)	2.05 µM (inactive)	7.21 µM (inactive)	13.4 µM (inactive)	4.36 µM (inactive)	11.2 µM (inactive)	13.5 µM (inactive)	3.86 µM (inactive)	4.3 µM (inactive)	7.98 µM (inactive)	9.89 µM (inactive)
CN(O)C(=O)c1ccc(OCc2cccc(Cl)c2)cc1	25.6 µM (inactive)	16.9 µM (inactive)	16.7 µM (inactive)		18.5 µM (inactive)	27.4 µM (inactive)	14.8 µM (inactive)	21.2 µM (inactive)	27.5 µM (inactive)	19.5 µM (inactive)	15.3 µM (inactive)	25.8 µM (inactive)	34.4 µM (inactive)	8.45 µM (inactive)	16 µM (inactive)	> 62.1 µM (inactive)	18 µM (inactive)	24.5 µM (inactive)	11.4 µM (inactive)	57.4 µM (inactive)
CC1CC(C)[C@H](O)C([C@H](O)CC2CC(=O)N(C)C(=O)C2)C1 (stereo not given in full)	> 100 µM (inactive)	> 100 µM (inactive)	> 100 µM (inactive)	> 100 µM (inactive)	> 100 µM (inactive)	> 100 µM (inactive)	> 100 µM (inactive)	> 100 µM (inactive)	> 100 µM (inactive)	> 100 µM (inactive)	> 100 µM (inactive)	> 100 µM (inactive)	> 100 µM (inactive)	> 100 µM (inactive)	> 100 µM (inactive)	> 100 µM (inactive)	> 100 µM (inactive)	> 100 µM (inactive)	> 100 µM (inactive)	> 100 µM (inactive)
Cn1cnc2c1c(=O)n(CCNCCO)c(=O)n2C	> 100 µM (inactive)	> 100 µM (inactive)	> 100 µM (inactive)	> 100 µM (inactive)	> 100 µM (inactive)	> 100 µM (inactive)	> 100 µM (inactive)	> 100 µM (inactive)	> 100 µM (inactive)	> 100 µM (inactive)	> 100 µM (inactive)	> 100 µM (inactive)	> 100 µM (inactive)	> 100 µM (inactive)	> 100 µM (inactive)	> 100 µM (inactive)	> 100 µM (inactive)	> 100 µM (inactive)	> 100 µM (inactive)	> 100 µM (inactive)
CC(Oc1ccccc1)C(=O)NNC(=O)OC(C)(C)C (stereo not given)	> 100 µM (inactive)	> 100 µM (inactive)	> 100 µM (inactive)	> 100 µM (inactive)	> 100 µM (inactive)	> 100 µM (inactive)	> 100 µM (inactive)	> 100 µM (inactive)	> 100 µM (inactive)	> 100 µM (inactive)	> 100 µM (inactive)	> 100 µM (inactive)	> 100 µM (inactive)	> 100 µM (inactive)	> 100 µM (inactive)	> 100 µM (inactive)	> 100 µM (inactive)	> 100 µM (inactive)	> 100 µM (inactive)	> 100 µM (inactive)
C#CCNC(CS)C(=O)O (stereo not given)	> 100 µM (inactive)	> 100 µM (inactive)	> 100 µM (inactive)	> 100 µM (inactive)	> 100 µM (inactive)	> 100 µM (inactive)	> 100 µM (inactive)	> 100 µM (inactive)	> 100 µM (inactive)	> 100 µM (inactive)	> 100 µM (inactive)	> 100 µM (inactive)	> 100 µM (inactive)	> 100 µM (inactive)	> 100 µM (inactive)	> 100 µM (inactive)		> 100 µM (inactive)	> 100 µM (inactive)	> 100 µM (inactive)
CSc1c(C(=O)Nc2ccc(C)cc2)c(N)nn1-c1ccccc1	26.4 µM (inactive)	> 100 µM (inactive)	36.1 µM (inactive)	19.9 µM (inactive)	23.4 µM (inactive)	42.8 µM (inactive)	> 100 µM (inactive)	46 µM (inactive)		> 100 µM (inactive)	58.3 µM (inactive)	23.1 µM (inactive)	> 100 µM (inactive)	49.4 µM (inactive)	27.3 µM (inactive)	> 100 µM (inactive)	> 100 µM (inactive)	39.5 µM (inactive)	> 100 µM (inactive)	33.3 µM (inactive)
CN(C)CCNc1ccc(CO)c2sc3ccc(O)cc3c(=O)c12	1.96 µM (inactive)	0.35 µM (active)	3.42 µM (inactive)	2.66 µM (inactive)	0.957 µM (active)	0.467 µM (active)	1.69 µM (inactive)	1.55 µM (inactive)	2.34 µM (inactive)	1.15 µM (inactive)	2.58 µM (inactive)	6.89 µM (inactive)	5.21 µM (inactive)	1.12 µM (inactive)	0.286 µM (active)	5.26 µM (inactive)	1.23 µM (inactive)	1.32 µM (inactive)	0.869 µM (active)	8.77 µM (inactive)
